According to patent US8637679B2, “Process for the isolation of organic compounds useful for the treatment of cancer” (Council of Scientific and Industrial Research, priority 2011, dated 2014):
Entries after “also recorded” stand apart in the source; their conditions may differ.

Assays:
WI-38 = assay: MTT cell viability assay, WI-38 normal cells; assay type: cell-based, human
Description: (§1) Viability of cancer cell lines after treatment as at the indicated times was determined by MTT assay. Briefly, 10,000 cells were plated in triplicate in 96 well plates and incubated for 24 and 48 hours in complete media in presence of varying dose of mahanine (0-50 μM). 100 ug MTT was added in each well. Incubate the plate for 1-4 hours at 37° C. and humidified 5% CO2 atmosphere. Absorbance was recorded at 550 nm with 96 well plate readers.

[1] = system: orthotopic pancreatic tumour; assay: Orthotopic pancreatic tumour model; assay type: in vivo; conditions: athymic nude mice
A172 = assay: MTT cell viability assay, A172; assay type: cell-based, human; conditions: Homo sapiens, A 172; A172, 48 hrs
Description: (§2) Human cervical cancer cell lines (HeLa, ME-180 and SiHa), brain tumor cell lines (U87MG, U373MG, U87MG EGFRvIII, T98G, A172 and LN229), lymphoid leukemia (MOLT-3, MOLT-4, REH and CEMC-7), myloid leukemia (K562), pancreatic cancer (MIAPaCa-2, AsPC-1, Panc-1 and Panc 10.05), lung cancer (A549) and colon cancer (HCT116 and SW480) cell lines from American Type Culture Collection, Manassas, Va., USA were grown in IMDM or RPMI (cell specific) Medium supplemented with 10% fetal bovine serum and 1% antibiotic-antimycotic. Cells were cultured in 37° C. in an atmosphere of 5% CO2.
as §1

Panc10.05 = assay: MTT cell viability assay, Panc10.05; assay type: cell-based, human; conditions: Homo sapiens, Panc1005; Panc10.05, 48 hrs
Description: as §2, §1

[2] = system: glioma (T98G) and cervical (HeLa) cancer cells; assay: Comparative cytotoxicity of mahanine and analogs by MTT; assay type: cell-based, human
Description: as §2, §1

K562 = assay: MTT cell viability assay, K562; assay type: cell-based, human; conditions: Homo sapiens; K562, 48 hrs
Description: as §2, §1

HeLa [3] = assay: MTT cell viability assay, HeLa; assay type: cell-based, human
Description: as §2, §1

MIAPaCa-2 = assay: MTT cell viability assay, MIAPaCa-2; assay type: cell-based, human; conditions: Homo sapiens, MIA PaCa-2; MIAPaCa-2, 48 hrs
Description: as §2, §1

ME180 [4] = assay: 7-AAD flow cytometric apoptosis, ME180; assay type: cell-based, human; conditions: ME180, 25 μM mahanine
Description: (§3) U87MG, LN229, HeLa, SiHa and ME180 (1×10^6 cells) cells were cultured in 6-well plates in presence or absence of Mahanine (25 μM) for 24 hrs. Cells were washed in PBS, incubated with 7-Aminoactinomycin D (7-AAD) at 4° C. for 20 min and processed. Data acquisition was done on a FACSCalibur flow cytometer (BD) at excitation wavelength at 488 nm and emission wavelength at 647 nm and analyzed with CellQuestPro software.

SiHa = assay: MTT cell viability assay, SiHa; assay type: cell-based; conditions: Homo sapiens, 48 hr
Description: as §2, §1

Molt-3 = assay: MTT cell viability assay, Molt-3; assay type: cell-based, human; conditions: Homo sapiens; Molt-3, 48 hrs
Description: as §2, §1

T98G = assay: MTT cell viability assay, T98G; assay type: cell-based, human; conditions: Homo sapiens, 48 hrs
Description: as §2, §1

ME180 [5] = assay: MTT cell viability assay, ME180; assay type: cell-based; conditions: Homo sapiens, ME-180, ME180, 48 hr
Description: as §2, §1

SW480 = assay: MTT cell viability assay, SW480; assay type: cell-based, human; conditions: Homo sapiens; SW480, 48 hrs
Description: as §2, §1

Storage stability = assay type: physicochemical
HeLa [6] = assay: 7-AAD flow cytometric apoptosis, HeLa; assay type: cell-based, human; conditions: 25 μM mahanine
Description: as §3

BxPC-3 = assay: Scratch-wound haptotaxis assay, BxPC-3; assay type: cell-based, human; conditions: BxPC-3, highest treated cells, 6 hrs
Description: Highly and moderately invasive pancreatic cancer cell lines, MIAPaCa-2 and BxPC3 (1×10^6/ml/well) were cultured to >90% confluence in 6 well plate. Consequently, cell were rinsed with PBS and starved in low serum media (2 ml containing 0.5%-0.1% serum in RPMI-1640 for MIAPaCa-2 and BxPC-3) for overnight. On the following day, three separate scratch-wounds were made through the confluent cells. Scratched plate was rinsed with PBS and replaced with serum starved media containing successive doses of mahanine or EtOH for 6 hrs. Picture was taken by using phase contrast at 10× accordingly.

REH = assay: MTT cell viability assay, REH; assay type: cell-based, human; conditions: Homo sapiens, 48 hrs
Description: as §2, §1

AsPC1 = assay: MTT cell viability assay, AsPC1; assay type: cell-based, human; conditions: Homo sapiens; AsPC1, 48 hrs
Description: as §2, §1

Hsp90β = Hsp90β (Homo sapiens, UniProt P08238); assay: γ-ATP sepharose binding assay, Hsp90β; conditions: mahanine at 50 and 100 μM
Chain of Hsp90β (P08238 whole entry): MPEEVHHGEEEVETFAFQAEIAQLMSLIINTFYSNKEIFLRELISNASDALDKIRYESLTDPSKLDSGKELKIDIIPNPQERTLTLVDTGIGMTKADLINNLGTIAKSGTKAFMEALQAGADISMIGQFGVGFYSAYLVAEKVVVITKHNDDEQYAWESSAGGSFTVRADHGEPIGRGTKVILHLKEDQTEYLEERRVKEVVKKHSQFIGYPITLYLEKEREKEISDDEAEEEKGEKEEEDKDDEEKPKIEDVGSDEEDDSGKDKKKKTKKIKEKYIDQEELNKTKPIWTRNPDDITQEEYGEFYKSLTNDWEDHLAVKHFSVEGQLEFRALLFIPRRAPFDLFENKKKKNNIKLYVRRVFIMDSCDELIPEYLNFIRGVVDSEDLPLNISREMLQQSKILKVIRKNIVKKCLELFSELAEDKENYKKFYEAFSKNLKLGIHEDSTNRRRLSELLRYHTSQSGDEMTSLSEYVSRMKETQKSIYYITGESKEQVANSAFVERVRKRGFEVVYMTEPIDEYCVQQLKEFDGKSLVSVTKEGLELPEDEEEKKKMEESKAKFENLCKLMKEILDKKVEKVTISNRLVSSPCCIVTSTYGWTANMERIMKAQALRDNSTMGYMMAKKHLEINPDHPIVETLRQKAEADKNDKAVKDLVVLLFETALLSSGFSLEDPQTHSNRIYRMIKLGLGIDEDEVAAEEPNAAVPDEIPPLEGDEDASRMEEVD
Description: 5 μg of purified Hsp90α and Hsp90β were pre-incubated separately on ice with 200 μL incubation buffer (10 mM Tris-Hcl, 50 mM KCl, 5 mM MgCl2, 2 mM DTT, 20 mM Na2MoO4, 0.01% NP40, pH 7.5) containing mahanine or 17-AAG and incubated for 30 mins on ice. After the incubation, 25 μL pre-equilibrated γ-phosphate ATP sepharose added and again incubated at 37° C. with frequent agitation.
Sepharose subsequently washed and analyzed by SDS-PAGE. Then the blot was probed with anti Hsp90 antibody and developed by ECL.

Which IC50 (WI-38; Homo sapiens, WI-38 normal cell line, 48 hrs) does the source give for `CC(C)=CCCC1(C)C=Cc2c(c(C)cc3c2[nH]c2cc(O)ccc23)O1` (centres unmarked) [Mahanine, mahanine] here?
Its IC50 is over 65 µM.

And the “sensitivity of WI-38 cells” value (WI-38; normal human lung fibroblast cells, in vitro)?
The value was “less sensitive; also recorded: minimum sensitivity”.

And the “orthotopic pancreatic tumour growth” value [1]?
Its value is “tumour growth inhibition”.

And the IC50 (A172)?
The IC50 was 11.6 ± 1 µM.

And the IC50 (Panc10.05)?
The IC50 was 18.5 ± 1.6 µM.

What about the “fold less IC50 of mahanine compared to mahanimbine” value [2] of the same compound?
The value was 2-2.5 fold.

And the IC50 (K562)?
Its IC50 is 13 ± 1.1 µM.

What about the IC50 (HeLa [3]; 48 hrs) of the same compound?
The IC50 was 13.2 ± 1.1 µM.

And the IC50 (HeLa [3]; Homo sapiens, 48 h)?
Its IC50 is 10.9 µM.

And the IC50 (MIAPaCa-2)?
Its IC50 is 13.9 µM.

And the “apoptosis (7-AAD+ve cells)” value (ME180 [4])?
Its value is 80.5%.

And the IC50 (SiHa)?
Its IC50 is 14.5 µM.

What about the IC50 (Molt-3) of the same compound?
Its IC50 is 10.6 ± 0.3 µM.

And the IC50 (T98G)?
The IC50 was 16.1 ± 0.9 µM.

What about the IC50 (ME180 [5]) of the same compound?
The IC50 was 14.6 µM.

What about the IC50 (SW480) of the same compound?
Its IC50 is 16 ± 0.3 µM.

And the stable storage time (Storage stability; dissolved in ethanol, −20° C.)?
Its stable storage time is over 6 months.

What about the “stability at room temperature” value (Storage stability; purified compound) of the same compound?
The value was “stable in room temperature”.

And the “apoptosis (7-AAD+ve cells)” value (HeLa [6])?
Its value is 92.28%.

And the “wound closure / migratory cells” value (BxPC-3)?
Its value is under 5%.

What about the IC50 (REH) of the same compound?
Its IC50 is 11.6 ± 0.7 µM.

And the IC50 (AsPC1)?
The IC50 was 17.2 ± 0.7 µM.

And the “effect on ATP binding to purified Hsp90” value (Hsp90β)?
The value was “could not reduce”.
